Counter-ions that a name gives are not always drawn.
How the values were obtained:
[1] = tested on: total hemolytic complement activity of human serum; conditions: in vitro and in vivo, judged by reduction in total hemolytic complement activity; cited from earlier work
[2] = tested on: shunt pathway activated by cobra venom factor; assay: Test Code 036 (C-Shunt inhibitor), lysis of fragile human erythrocytes in autologous serum; type: cell-based; conditions: in vitro; serial twofold dilution assay, higher well number indicates higher activity
Description: (§1) An active inhibitor protects C2 from C1 and C4; (ii) Test Code 035 (C3-C9 inhibitor)--This test determines the ability of the late components of human complement (C3-C9) to lyse EAC 142 in the presence of appropriate dilutions of the test compound. An active inhibitor protects EAC 142 from lysis by human C3-C9; (iii) Test Code 036 (C-Shunt inhibitor)--In this test human erythrocytes rendered fragile are lysed in autologous serum via the shunt pathway activated by cobra venom factor in the presence of appropriate dilutions of the test compound. Inhibition of the shunt pathway results in failure of lysis; (iv) Cap 50 Test--Here, appropriate amounts of the test compound are added to a pool of guinea pig serum in vitro, after which the complement level is determined in undiluted serum by the serum capillary tube assay of U.S. Pat. No. 3,876,376. The concentration of compound inhibiting 50% is reported; and (v) Guinea Pig Intraperitoneal Test (GPIP)--Guinea pigs weighing about 300 g are dosed intraperitoneally (i.p.) with 200 mg/kg of the test compound dissolved in saline and adjusted to pH 7-8. Approximately 0.4 ml blood samples, taken by orbital sinus puncture 30 minutes and one hour after injections, are collected directly into centrifuge tubes; 5 ml blood samples, taken by decapitation 2 hours after injection are collected directly into disPo® beakers. The samples were allowed to clot, centrifuged, and the resultant sera were assayed for complement activity using the capillary complement assay referred to above. Percent inhibition is calculated by comparison with simultaneous controls. The results of the GPIP appear in Table I together with results of Test Code 026, 035, 036 and Cap 50.

[3] = target: activated human C1 (Homo sapiens, UniProt P09871); assay: Test Code 026 (C1 inhibitor); type: biochemical; conditions: in vitro; serial twofold dilution assay, higher well number indicates higher activity
Description: as §1

[4] = tested on: late components of human complement (C3-C9); assay: Test Code 035 (C3-C9 inhibitor), lysis of EAC 142; type: biochemical; conditions: in vitro; serial twofold dilution assay, higher well number indicates higher activity
Description: as §1

[5] = tested on: complement activity of sera; assay: Guinea Pig Intraperitoneal Test (GPIP); type: in vivo; conditions: 200 mg/kg i.p.
Description: as §1

Molecule | anticomplementary activity on human serum [1] | C-Shunt Inhibition 036 Wells [2] | C1 026 Wells [3] | C-Late 035 Wells [4] | In vivo Activity (Guinea pigs) % Inhibition Intraperitoneal, 30 minutes ([5]; blood sample 30 minutes after injection) | In vivo Activity (Guinea pigs) % Inhibition Intraperitoneal, 60 minutes ([5]; blood sample 60 minutes after injection) | In vivo Activity (Guinea pigs) % Inhibition Intraperitoneal, 120 minutes ([5]; blood sample 120 minutes after injection)
pentosanpolysulfoester | has an anticomplementary activity on human serum, both in vitro and in vivo |  |  |  |  |  | 
O=S(=O)(O)OC[C@H]1O[C@H](OC[C@H]2O[C@H](O[C@]3(COS(=O)(=O)O)O[C@H](CO[C@@H]4O[C@H](COS(=O)(=O)O)[C@@H](O[C@H]5O[C@H](COS(=O)(=O)O)[C@@H](O[C@H]6O[C@H](COS(=O)(=O)O)[C@@H](O[C@H]7O[C@H](COS(=O)(=O)O)[C@@H](O[C@H]8O[C@H](COS(=O)(=O)O)[C@@H](O[C@H]9O[C@H](COS(=O)(=O)O)[C@@H](O[C@H]%10O[C@H](COS(=O)(=O)O)[C@@H](OS(=O)(=O)O)[C@H](OS(=O)(=O)O)[C@H]%10OS(=O)(=O)O)[C@H](OS(=O)(=O)O)[C@H]9OS(=O)(=O)O)[C@H](OS(=O)(=O)O)[C@H]8OS(=O)(=O)O)[C@H](OS(=O)(=O)O)[C@H]7OS(=O)(=O)O)[C@H](OS(=O)(=O)O)[C@H]6OS(=O)(=O)O)[C@H](OS(=O)(=O)O)[C@H]5OS(=O)(=O)O)[C@H](OS(=O)(=O)O)[C@H]4OS(=O)(=O)O)[C@@H](OS(=O)(=O)O)[C@@H]3OS(=O)(=O)O)[C@H](OS(=O)(=O)O)[C@@H](OS(=O)(=O)O)[C@@H]2OS(=O)(=O)O)[C@H](OS(=O)(=O)O)[C@@H](OS(=O)(=O)O)[C@H]1OS(=O)(=O)O [drawing 26, O-α-D-Glucopyranosyl(1→4)-[O-α-D-glucopyranosyl(1→4)]5 -O-β-D-glucopyranosyl(1→6)-β-D-fructofuranosyl-O-α-D-galactopyranosyl(1→6)-α-D-glucopyranoside dotriacontakis(H-sulfate), dotriacontasodium salt] |  | 5 Wells | 9 Wells | 3 Wells |  |  | 
O=S(=O)(O)OC[C@H]1O[C@H](OC[C@H]2O[C@H](O[C@]3(COS(=O)(=O)O)O[C@H](CO[C@@H]4O[C@H](COS(=O)(=O)O)[C@@H](O[C@H]5O[C@H](COS(=O)(=O)O)[C@@H](O[C@H]6O[C@H](COS(=O)(=O)O)[C@@H](O[C@H]7O[C@H](COS(=O)(=O)O)[C@@H](O[C@H]8O[C@H](COS(=O)(=O)O)[C@@H](O[C@H]9O[C@H](COS(=O)(=O)O)[C@@H](O[C@H]%10O[C@H](COS(=O)(=O)O)[C@@H](OS(=O)(=O)O)[C@H](OS(=O)(=O)O)[C@H]%10OS(=O)(=O)O)[C@H](OS(=O)(=O)O)[C@H]9OS(=O)(=O)O)[C@H](OS(=O)(=O)O)[C@H]8OS(=O)(=O)O)[C@H](OS(=O)(=O)O)[C@H]7OS(=O)(=O)O)[C@H](OS(=O)(=O)O)[C@H]6OS(=O)(=O)O)[C@H](OS(=O)(=O)O)[C@H]5OS(=O)(=O)O)[C@H](OS(=O)(=O)O)[C@H]4OS(=O)(=O)O)[C@@H](OS(=O)(=O)O)[C@@H]3OS(=O)(=O)O)[C@H](OS(=O)(=O)O)[C@@H](OS(=O)(=O)O)[C@@H]2OS(=O)(=O)O)[C@H](OS(=O)(=O)O)[C@@H](OS(=O)(=O)O)[C@H]1OS(=O)(=O)O [drawing 25, O-α-D-Glucopyranosyl(1→4)-[O-α-D-glucopyranosyl(1→4)]5 -O-β-D-glucopyranosyl(1→6)-β-D-fructofuranosyl-O-α-D-galactopyranosyl(1→6)-α-D-glucopyranoside dotriacontakis(H-sulfate), dotriacontasalt with trimethylamine] |  | 4 Wells | 9 Wells | 1 Wells |  |  | 
O=S(=O)(O)OC[C@H]1O[C@H](OC[C@H]2O[C@H](O[C@]3(COS(=O)(=O)O)O[C@H](CO[C@@H]4O[C@H](COS(=O)(=O)O)[C@@H](O[C@H]5O[C@H](COS(=O)(=O)O)[C@@H](O[C@H]6O[C@H](COS(=O)(=O)O)[C@@H](OS(=O)(=O)O)[C@H](OS(=O)(=O)O)[C@H]6OS(=O)(=O)O)[C@H](OS(=O)(=O)O)[C@H]5OS(=O)(=O)O)[C@H](OS(=O)(=O)O)[C@H]4OS(=O)(=O)O)[C@@H](OS(=O)(=O)O)[C@@H]3OS(=O)(=O)O)[C@H](OS(=O)(=O)O)[C@@H](OS(=O)(=O)O)[C@@H]2OS(=O)(=O)O)[C@H](OS(=O)(=O)O)[C@@H](OS(=O)(=O)O)[C@H]1OS(=O)(=O)O [drawing 23, O-α-D-Glucopyranosyl(1→4)-O-α-D-glucopyranosyl(1→4)-O-β-D-glucopyranosyl(1→6)-β-D-fructofuranosyl-O-α-D-galactopyranosyl(1→6)-α-D-glucopyranoside eicosakis(H-sulfate) eicosasalt with trimethylamine] |  | 5 Wells | 9 Wells | 2 Wells |  |  | 
O=S(=O)(O)OC[C@H]1O[C@H](OC[C@H]2O[C@H](O[C@]3(COS(=O)(=O)O)O[C@H](CO[C@@H]4O[C@H](COS(=O)(=O)O)[C@@H](O[C@H]5O[C@H](COS(=O)(=O)O)[C@@H](O[C@H]6O[C@H](COS(=O)(=O)O)[C@@H](OS(=O)(=O)O)[C@H](OS(=O)(=O)O)[C@H]6OS(=O)(=O)O)[C@H](OS(=O)(=O)O)[C@H]5OS(=O)(=O)O)[C@H](OS(=O)(=O)O)[C@H]4OS(=O)(=O)O)[C@@H](OS(=O)(=O)O)[C@@H]3OS(=O)(=O)O)[C@H](OS(=O)(=O)O)[C@@H](OS(=O)(=O)O)[C@@H]2OS(=O)(=O)O)[C@H](OS(=O)(=O)O)[C@@H](OS(=O)(=O)O)[C@H]1OS(=O)(=O)O [drawing 24, O-α-D-Glucopyranosyl(1→4)-O-α-D-glucopyranosyl(1→4)-O-β-D-glucopyranosyl(1→6)-β-D-fructofuranosyl-O-α-D-galactopyranosyl(1→6)-α-D-glucopyranoside eicosakis(H-sulfate), eicosasodium salt] |  | 6 Wells | 9 Wells | 1 Wells | 49% | 67% | 78%

Reference: patent US4357326A, “Multi-glucopyranosyl-fructofuranosyl-galactopyranosyl-glucopyranoside sulfate salts and methods of use” (American Cyanamid Company, priority 1981, dated 1982)
